The results in this text go back to PubChem BioAssay (NCI).

Molecules are shown by their SMILES.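 Values below derive from 48-hour exposures of cells grown in 96-well plates, with endpoints linearly interpolated between the two concentrations bracketing the appropriate inhibition level. The concentration for 50% growth inhibition is given as GI50. At the TGI there is no net growth.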

What all share (assay): NCI tumour cell line growth inhibition, 48 h
The test system of experiment [1] is EKVX NSCLC.
Experiment [2] relates to M14 melanoma.
Experiment [3] deals with NCI-H23 lung.
For experiment [4], the system named is SF-295 CNS.
The subject of experiment [5] is SK-MEL-2 melanoma.
The subject of experiment [6] is SK-OV-3 ovarian.
The subject of experiment [7] is T-47D breast.
Experiment [8] relates to TK-10 renal.
The subject of experiment [9] is UACC-62 melanoma.
Experiment [10] deals with UO-31 renal.

Turning to `CNC(=O)/C(=C/c1ccc(OC)cc1)c1cc(OC)c(OC)c(OC)c1`, the TGI in [1] is more than 100 µM; in experiment [2], more than 34.6 µM; in experiment [3], 32.6 µM; in experiment [4], 3.02 µM; in experiment [5], more than 100 µM; in experiment [6] it was 29 µM. Besides, the TGI in experiment [7] is more than 100 µM; in experiment [8] it was more than 100 µM; in experiment [9], more than 48.6 µM; in experiment [10], more than 86 µM.
For `Cn1ccc2c3c(=O)cc[nH]c3ccc21`, the GI50 in experiment [1] was more than 100 µM; in experiment [2], more than 100 µM; in experiment [3] it was more than 100 µM; in [4], more than 100 µM; in experiment [5], more than 100 µM; in experiment [6] it was 80.1 µM. The GI50 in [7], in experiment [8], in experiment [9] and in experiment [10] was more than 100 µM throughout. Moreover, the TGI in experiment [1], in experiment [2], in experiment [3], in [4], in experiment [5] and in experiment [6] was more than 100 µM in each case. For the same compound, the TGI in [7], in [8], in experiment [9] and in experiment [10] was more than 100 µM throughout.
As for `OCc1ncc(-c2ccccc2)s1`, the GI50 in experiment [1], in experiment [2], in [3], in [4], in experiment [5] and in experiment [6] was more than 100 µM in each case. For the same compound, the GI50 in experiment [7], in experiment [8], in experiment [9] and in experiment [10] was more than 100 µM throughout. Moreover, the TGI in experiment [1], in experiment [2], in experiment [3], in experiment [4], in experiment [5] and in experiment [6] was more than 100 µM each time. For the same compound, the TGI in [7], in [8], in experiment [9] and in [10] was more than 100 µM each time.
Consider `C=C1C(=O)O[C@H]2[C@H]1CC/C(COC(=O)C(=O)c1c[nH]c3ccc(Cl)cc13)=C\CC[C@@]1(C)O[C@@H]21`, for which the GI50 was 2.06 µM in experiment [1]; 1.59 µM in experiment [2]; 1.65 µM in experiment [3]; 5.77 µM in experiment [4]; 1.94 µM in [5]; 11.6 µM in experiment [6]. For the same compound, the GI50 in experiment [7] is 1.62 µM; in experiment [8] it was 1.73 µM; in experiment [9], 1.28 µM; in experiment [10] it was 1.22 µM. Further, the TGI in [1] stood at 5.03 µM; in [2], 3.62 µM; in experiment [3], 3.31 µM; in [4] it was 18.6 µM; in experiment [5], 4.23 µM; in [6], 24.1 µM. Further, the TGI was 3.77 µM in experiment [7], 3.2 µM in experiment [8], 3.54 µM in [9] and 2.53 µM in experiment [10].
`CC(=O)OC1CC2(O)C(CCC3(C)C(c4ccc(=O)oc4)CCC32O)C2(C)CCC(OC3OC(CO)C(O)C(O)C3O)C=C12` (stereo not given): the GI50 in [1] was 0.0135 µM; in [2], 0.0356 µM; in experiment [3], 0.0114 µM; in experiment [4], 0.0302 µM; in [5], 0.0474 µM; in experiment [6] it was 0.0447 µM. In addition, the GI50 was 0.0402 µM in [7], 0.0226 µM in [8], 0.03 µM in experiment [9] and 0.0182 µM in experiment [10]. The TGI in [1] was 0.0419 µM; in experiment [2], 0.129 µM; in [3], 0.0539 µM; in experiment [4], 0.168 µM; in [5], 0.413 µM; in experiment [6] it was 0.717 µM. Also, the TGI is 0.837 µM in experiment [7], 0.201 µM in experiment [8], 0.101 µM in [9] and 0.0466 µM in experiment [10].
On to `Cc1cccc2c(N=Nc3ccccc3[N+](=O)[O-])c(O)[nH]c12`, for which the TGI in experiment [1] is 33.6 µM; in [2] it was more than 100 µM; in experiment [3], 23.4 µM; in [4] it was 28.3 µM; in experiment [5] it was more than 71.1 µM; in experiment [6], 21.8 µM. Besides, the TGI is 21.9 µM in experiment [7], 16.9 µM in [8], 73.7 µM in experiment [9] and 22.5 µM in [10].
As for `Cc1ccc(NC(=O)N2CCCCC2)cc1[N+](=O)[O-]`, the GI50 in [1], in experiment [2], in [3], in experiment [4], in [5] and in [6] was more than 100 µM throughout. The GI50 was 77.1 µM in [7], more than 100 µM in experiment [8], more than 100 µM in experiment [9] and more than 100 µM in experiment [10]. In addition, the TGI in experiment [1], in experiment [2], in experiment [3], in experiment [4], in experiment [5] and in [6] was more than 100 µM in each case. In addition, the TGI in experiment [7], in [8], in experiment [9] and in experiment [10] was more than 100 µM each time.
Consider `O=C1c2ccccc2C(=O)c2sc(Nc3ccc(Cl)cc3)nc21`, for which the TGI came out at 17.9 µM in experiment [1]; 3.96 µM in experiment [2]; 2.81 µM in [3]; 15.8 µM in [4]; 8.94 µM in experiment [5]; 30.4 µM in experiment [6]. For the same compound, the TGI in experiment [7] was 7.52 µM; in experiment [8], 14.6 µM; in experiment [9], 4.05 µM; in experiment [10], 6.35 µM. In [7], the GI50 is 1.8 µM.
For the compound `N#CSCC1CC(O)(c2ccccc2)CC(c2ccc(Cl)cc2)O1` (stereo not given), the GI50 in [1] is 4.19 µM; in experiment [2], 1.75 µM; in experiment [3] it was 2.41 µM; in [4], 3.28 µM; in experiment [5], 1.89 µM; in [6], 14.3 µM. The GI50 in experiment [7] was 1.7 µM; in experiment [8], 2.13 µM; in [9], 3.31 µM; in experiment [10], 1.61 µM. Further, the TGI in experiment [1] turned out to be 17.7 µM; in [2], 3.28 µM; in experiment [3], 6.53 µM; in experiment [4] it was 12.7 µM; in [5], 3.78 µM; in [6], 27.5 µM. Also, the TGI in experiment [7] amounted to 6.27 µM; in experiment [8], 4.33 µM; in [9], 10.9 µM; in experiment [10], 4.84 µM.
Regarding `CC(C)c1ccc(/C=N/N=C(N)N)cc1`, the GI50 is 5.33 µM in experiment [1]; 2.02 µM in experiment [2]; 3.96 µM in experiment [3]; 8.13 µM in [4]; 2.64 µM in experiment [5]; 3.24 µM in experiment [6]. The GI50 in experiment [7] is 2.03 µM; in experiment [8], 12.9 µM; in experiment [9], 7.73 µM; in [10] it was 10.3 µM. The TGI in [1] amounted to 24.4 µM; in experiment [2] it was 4.2 µM; in experiment [3], 19.7 µM; in experiment [4], 22.4 µM; in experiment [5], 5.61 µM; in [6], 13 µM. Also, the TGI turned out to be 5.53 µM in [7], 26.4 µM in experiment [8], 21.3 µM in [9] and 22.3 µM in experiment [10].
As for `O=C(O)c1nnsc1-c1csnn1`, the TGI in [1], in [2], in experiment [3], in experiment [4], in [5] and in experiment [6] was more than 100 µM throughout. In addition, the TGI in [7], in [8], in [9] and in experiment [10] was more than 100 µM in each case.
On to `CCCC(CCC)Oc1ccc(CCCC2=C(O)c3ccccc3C(=O)C2=O)cc1`, for which the GI50 in [1] is 5.61 µM; in experiment [2] it was 9.35 µM; in [3], 5.94 µM; in experiment [4], 2.1 µM; in experiment [5], 6.85 µM; in [6], 12.6 µM. Moreover, the GI50 in [7] is 12 µM; in experiment [8] it was 8.03 µM; in experiment [9] it was 3.16 µM; in experiment [10], 2.69 µM. Also, the TGI turned out to be 18 µM in experiment [1]; 22.2 µM in [2]; 21.1 µM in experiment [3]; 10.4 µM in experiment [4]; 28 µM in [5]; 28.3 µM in [6]. Further, the TGI in experiment [7] is 31.6 µM; in [8], 21.3 µM; in experiment [9], 17 µM; in [10], 13.8 µM.
In the case of `CN(C)CCCN1c2ccc(O)cc2Sc2ccc(Cl)cc21`, the TGI stood at 35.9 µM in [1]; 19.7 µM in experiment [2]; 34 µM in experiment [3]; 29 µM in experiment [4]; 19 µM in experiment [5]; 32.1 µM in [6]. For the same compound, the TGI in experiment [7] is 38.7 µM; in experiment [8], 24.9 µM; in [9] it was 21.8 µM; in [10] it was 21.7 µM.
As for `CCCCCCCC(=O)NS(=O)(=O)c1ccccc1`, the TGI in [1], in experiment [2], in [3], in [4], in [5] and in experiment [6] was more than 100 µM each time. The TGI in [7], in experiment [8], in experiment [9] and in experiment [10] was more than 100 µM throughout.
In the case of `Cc1[nH]c(=O)nc(N/N=C/c2ccc(Cl)cc2)c1C(=O)Nc1ccc(Cl)cc1`, the TGI was more than 100 µM in [1]; 40.3 µM in experiment [2]; more than 93.1 µM in experiment [3]; 43.4 µM in [4]; more than 100 µM in [5]; 57.9 µM in experiment [6]. The TGI is more than 85.4 µM in experiment [7], 56.9 µM in [8], more than 100 µM in [9] and more than 100 µM in experiment [10].
For the compound `COc1ccc2c(c1)C(=O)c1c-2n(CCCN=[N+]=[N-])c(=O)c2cc(N)ccc12`, the GI50 in [1], in experiment [2], in experiment [3], in [4], in experiment [5] and in experiment [6] was more than 100 µM in each case. Moreover, the GI50 in experiment [7], in [8], in experiment [9] and in experiment [10] was more than 100 µM throughout. Besides, the TGI in experiment [1], in experiment [2], in [3], in experiment [4], in experiment [5] and in experiment [6] was more than 100 µM in each case. Further, the TGI in experiment [7], in experiment [8], in experiment [9] and in experiment [10] was more than 100 µM each time.
Regarding `CNC12C3C4C1C1C2C3C41C(=O)N[C@H](C(=O)N(C)[C@H](C[C@@H](OC(C)=O)c1nc(C(=O)N[C@@H](Cc2ccccc2)C[C@H](C)C(=O)OC)cs1)C(C)C)C1CC1` (stereo not given in full), the GI50 in experiment [1] is 1.95 µM; in [2], 0.294 µM; in experiment [3], 0.511 µM; in [4], 0.343 µM; in [5] it was 0.189 µM; in experiment [6], 0.714 µM. The GI50 in experiment [7] is 1.38 µM; in experiment [8], 0.562 µM; in [9], 0.0921 µM; in experiment [10] it was 2.25 µM. The TGI in experiment [1] is more than 15 µM; in experiment [3], more than 15 µM; in [4], 1.31 µM; in [6], more than 15 µM; in experiment [7] it was more than 15 µM; in [8], more than 15 µM. The TGI in [9] was 2.98 µM; in [10], more than 15 µM.
On to `COC1C(O)CC(OC2CC(OC3CC(O[C@@H]4C(=O)c5c(cc6cc(OC7CC(OC8CC(O)C(O)C(C)O8)C(O)C(C)O7)c(C)c(O)c6c5O)C[C@H]4[C@H](OC)C(=O)[C@@H](O)[C@@H](C)O)OC(C)C3O)OC(C)C2O)OC1C` (stereo not given in full), for which the TGI is 8.06 µM in experiment [1]; 0.116 µM in experiment [2]; less than 0.0442 µM in experiment [3]; more than 20.3 µM in experiment [4]; less than 0.0205 µM in [5]; more than 100 µM in [6]. In addition, the TGI is 0.203 µM in experiment [7], more than 39.8 µM in [8], 0.265 µM in experiment [9] and 0.15 µM in experiment [10]. Also, the GI50 in experiment [3] was less than 0.0189 µM.
